{
  "source": "patent US9732367B2",
  "about": "“Cell lines” (MEDIMMUNE LIMITED, priority 2012, dated 2017)",
  "molecules": {"B1": {"name": "PEG-FGF21 (conjugate, UniProt Q9NSA1 29-209, looked up)", "Fibroblast growth factor 21": "HPIPDSSPLLQFGGQVRQRYLYTDDAQQTEAHLEIREDGTVGGAADQSPESLLQLKALKPGVIQILGVKTSRFLCQRPDGALYGSLHFDPEACSFRELLLEDGYNVYQSEAHGLPLHLPGNKSPHRDPAPRGPARFLPLPGLPPALPEPPGILAPQPPDVGSSDPLSMVGPSQGRSPSYAS", "modifications": "PEGylated"}},
  "key": {"[1]": {"tested_on": "HEK293 c18 cells", "assay": "MTS viability assay with nnAA titration in cells transfected with pylRS and tRNA", "settings": "ALOC 5 mM to 0.08 mM, 5 days", "description": "Finally, to determine whether amber suppression led to cytostatic effects, 1000 HEK293 c18 cells plates in a 96 well plate and transiently transfected with pCEP4-pylRS and pOriP-9×tRNA constructs. Cells were grown in DMEM-C medium containing a titration of nnAA (ALOC) starting with 5 mM to 0.08 mM. Cell viability was assayed at the time of the transfection, and after 5 days growth using an MTS colorimetric assays (FIG. 4D)."}, "[2]": {"target": "T1, pylRS/tRNA pair (Methanosarcina mazei, UniProt Q8PWY1)", "T1 construct": "expressed in transfected cells; host or cells: HEK293 clone 3H7", "T1 sequence (Q8PWY1 whole entry)": "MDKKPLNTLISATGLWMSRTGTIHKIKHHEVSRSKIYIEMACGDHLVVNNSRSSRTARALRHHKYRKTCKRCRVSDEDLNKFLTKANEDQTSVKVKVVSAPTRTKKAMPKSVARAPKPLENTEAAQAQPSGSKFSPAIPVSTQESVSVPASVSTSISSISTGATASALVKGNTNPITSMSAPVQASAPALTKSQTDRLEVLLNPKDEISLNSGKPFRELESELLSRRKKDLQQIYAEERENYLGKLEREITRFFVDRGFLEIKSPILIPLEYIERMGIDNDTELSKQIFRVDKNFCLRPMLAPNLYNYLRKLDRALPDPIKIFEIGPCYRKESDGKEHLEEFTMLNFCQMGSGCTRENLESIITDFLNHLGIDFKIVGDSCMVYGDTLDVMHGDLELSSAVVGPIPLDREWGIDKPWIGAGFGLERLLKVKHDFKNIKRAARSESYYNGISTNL", "assay": "GFP assay: translational testing of pyrrolysine analogs as nnAAs", "format": "cell-based", "settings": "Formula V analogs, nnAA 2 mM, 2-3 days; for MFI: geometric mean", "excerpt": "An in vitro cell based assay was developed to assess the compatibility of the pylRS/tRNA pair and the pyrrolysine analogs of the present invention (nnAAs) by and the efficiency of nnAAs integration into a target protein. For this, HEK293 cells stably expressing pylRS (3H7) were transiently transfected with plasmids for the expression of tRNApyl and a reporter construct encoding GFPY40 (containing amber codon in place of tyrosine at amino acid residue number 40 (where 1 is the initiator methionine)) using standard transfection protocols. Transfected cells were incubated with nnAAs at 2 mM for 2-3 days GFP production was analyzed qualitatively by visual inspection under the microscope. The GFP fluorescence was quantified by flow cytometry using an Accuri flow cytometer and the geometric mean of the fluorescent cells determined.\nThis cell based assay was used to determine whether the different nnAAs were suitable substrates for the pylRS and allowed its translation into a target protein. Cells expressing the PylRS/tRNApyl pair and containing a vector encoding the GFPY40 reporter gene were incubated in the presence of the nnAAs. nnAAs that are readily utilized by the PylRS/tRNApyl pair support the translation of the nnAA into the amber site of GFP and allow read-through of the gene producing full length GFP (fluorescent protein). The fluorescence intensity of the cells depends on the efficiency of nnAA incorporation. Thus, nnAAs that are poorly utilized produce weakly fluorescent or non-fluorescing cells. […] Furthermore, the relative expression levels in each sample was compared to those generated by substrates known to be efficiently utilized by pylRS."}, "[3]": {"tested_on": "background amber suppression", "assay": "Background amber suppression (GFPY40 reporter, pylRS/tRNApyl, dnnAA without nnAA)", "format": "cell-based", "procedure": "The competitive assay for dnnAA inhibition in the presence of a high affinity substrate identified dnnAAs that compete for binding with to the pylRS and thus are specific inhibitors of the pylRS/tRNA. However, the decoy nnAA is intended to reduce the levels of background amber suppression in the absence of nnAA. To determine if background amber suppression levels could be reduced, we incubated cells containing the GFPY40 reporter construct and the pylRS/tRNApyl pair in medium containing one of the dnnAAs. To do this, HEK293 cells stably expressing pylRS were transiently transfected with a tRNA expression construct and the GFPY40 reporter cassette. After 3 days of incubation, cells were assayed for expression of GFP by flow cytometry and geometric mean fluorescence intensity of the samples determined. We have previously observed that cells containing the full complement of the pylRS/tRNA amber suppression system show detectable expression of the GFP reporter construct that is above what is observed in cells lacking the amber suppression system. […] To identify dnnAAs capable of reducing background amber suppression levels the transfected cells were incubated with each of the dnnAAs at 0.5 mM, 1 mM and 2 mM and GFP levels measured by flow cytometry.\nThe decrease in background amber suppression dependent GFP expression was dose dependent and improved as the dnnAA concentration increased. […] This feature is an attractive characteristic for platform development as it enables the repression of background amber suppression but the system can be activated upon addition of a strong pylRS substrate such as lys-azide. […] Their efficacy was quantified by the reduction in GFP expression relative to a control sample (not exposed to dnnAA) and the data are summarized in Table 1."}, "[4]": {"tested_on": "CHO cells stably expressing pylRS and tRNApyl and an IgG directed against her2/neu containing an amber codon", "assay": "Growth and viability of pylRS/tRNApyl cell line treated with lys azide and dnnAA", "format": "cell-based", "settings": "2 mM dnnAA with 0.5 mM lys-azide", "excerpt": "To examine whether the dnnAAs of the invention could function to improve the viability of cells containing pylRS and tRNApyl we monitored the growth and viability of a cell line, stably expressing pylRS and tRNApyl. For this assay CHO cells stably expressing pylRS and tRNApyl and an IgG directed against her2/neu containing an amber codon in the heavy chain, shown to effectively incorporate nnAA into the expressed IgG thus producing an antibody containing a nnAA, were used for this experiment. Despite a high expression level of pylRS/tRNApyl pair, this cell line has very robust cell growth characteristics when grown in medium lacking nnAA. The presence of a highly expressed target containing an amber codon likely has a protective effect on the cells by supplying them with high levels of amber codons that absorb the amber suppression activity and protects the cells from the effects of background amber suppression at essential genes. However, upon addition of the nnAA (lys-azide) to the growth medium, and activation of the amber suppression machinery, a decrease in cell growth rate is observed. […] To determine whether a dnnAA can rescue this effect, cells cultured in serum free medium were grown to a cell density of 0.5×10^6 cells/mL and subsequently treated with 0.5 mM lys azide alone or in combination with 2 Mm dnnAA. Cell viability and cell numbers were monitored daily over seven days. Cells treated with lys azide alone reached a cell density just below 1×10^6 cells/mL on day 3 after nnAA addition and remained at this density for the remainder of the assay (seven days) (FIG. 15A) The lack of growth was not likely due to loss of viability as the culture retained high viability throughout the experiment (˜70% viable cells) (FIG. 15B) Cultures treated with 2 mM Compound of formula VIIB.4, or 2 mM Formula VIIB.1 in combination with 0.5 mM lys-azide supported continued growth of the culture that reached over 1.5×10^6 cells/mL and retained a cell viability of 90%."}, "[5]": {"tested_on": "platform cell line", "assay": "Platform cell line grown with or without dnnAA: cell numbers", "format": "cell-based", "procedure": "(§1) To do this a platform cell line, selected for high activity of the amber suppression machinery was grown in the presence or absence of dnnAA for several passages and subsequently seeded into 96-well plates at ten cells per well and grown in the presence or absence of dnnAA (Formula VIIB.2). Each plate was incubated for several days and cells harvested, pooled and counted. […] This two fold increase in cell numbers may be due to the protective effects of the dnnAA. To examine the activity of the cells grown under these conditions, 0.5×10^6 cells pooled from each plate were seeded into a 6-well plate and transfected with a GFPY40 reporter construct in the absence of dnnAA and with lys-azide. After 24 hours the fluorescence intensity of the cells in each sample was analysed by flow cytometry. The data were gated to include single cells and plotted to display the intensity of each event (scatter plot, FIG. 16). The number of events falling within the top 10% of the GFP intensity spectrum were determined for each sample (Table 2). […] Cells from both groups were also transfected with a construct encoding wild type GFP. The same analyses were performed on this group."}, "[6]": {"target": "T2, pylRS (Methanosarcina mazei, UniProt Q8PWY1)", "T2 construct": "expressed in transfected cells", "T2 sequence (Q8PWY1 whole entry)": "as above", "assay": "In vitro GFPY40 functional assay: dnnAA competition with lys azide in HEK293 cells stably expressing pylRS", "format": "cell-based", "settings": "lys azide with 0.5 mM, 1 mM and 2 mM dnnAA", "excerpt": "Effective dnnAAs were identified by their ability to compete with a high affinity substrate for pylRS (lys-azide) in an in vitro assay, for their ability to reduce background amber suppression levels observed with a reporter protein, and for their ability to improve the viability and function of cells previously selected for high pylRS/tRNA activity.\nTo identify analogues that could effectively compete for pylRS binding with lys-azide, dnnAAs were first tested for function in an in vitro functional assay based on the ability of cells expressing WT pylRS and tRNApyl to introduce a nnAA at a target site in the reporter protein GFPY40. This reporter contains an amber codon in its open reading frame that, in the absence of amber suppression, generates a truncated protein that is not fluorescent. In the event of amber suppression, a full length GFP protein is generated that is detectable by fluorescence detection methods. In this assay, HEK293 cells stably expressing pylRS, were transiently transfected with a tRNA expression construct and the GFPY40 reporter cassette. Cells were then incubated with 0.5 mM lys azide in the presence or absence of different concentrations of dnnAA ranging from 0.5 mM to 2 mM. GFP fluorescence levels were then quantified by flow cytometry. For this assay the proportion of fluorescent cells in each condition was determined and plotted. As the dnnAAs are expected to compete with the nnAA (lys-azide) for pylRS/tRNA binding, an effective dnnAA should reduce or prevent the expression of full length GFP (as described above dnnAAs can be delivered by the tRNA to the amber site, but cannot propagate protein synthesis).\nA similar in vitro assay was used to gauge the effectiveness of the dnnAAs of Formula VIIB listed in Table 1 where a description of the amino acids tested and a summary of the results are shown For this assay the geometric mean fluorescence intensity of each sample was determined by flow cytometry and plotted. For each dnnAA tested control cells transfected with wild type GFP were measured as a positive control. In addition cells transfected with the reporter GFPY40 and exposed to 0.5 mM lys azide or 2 mM lys azide were used to determine maximal GFP expression levels in the absence of an inhibitor. In each case robust GFP expression levels were observed. To test whether any of the dnnAA could reduce the efficacy of GFP expression, cells were incubated in the presence of 0.5 mM, 1 mM and 2 mM […]. […] Thus, dnnAAs of the present invention can compete with the lys-azide nnAA for binding to the pylRS and interfere with the physiological mechanism of nnAA introduction. Cells transfected with the pylRS/tRNA pair and the GFPY40 reporter construct but not exposed to either lys-azide or a dnnAA were used to determine levels of background amber suppression and used as a negative control. In each case low GFP expression levels were observed."}, "[7]": {"tested_on": "platform cell line", "assay": "GFPY40 reporter activity of platform cells grown with or without dnnAA (flow cytometry)", "format": "cell-based", "procedure": "as §1"}, "[8]": {"tested_on": "db/db mice", "assay": "Fed glucose blood levels in db/db mice", "format": "in vivo, mouse", "settings": "0.25 mg/Kg daily subcutaneously, day 3", "procedure": "To assess the potency of the PEGylated FGF21 constructs obese, db/db mice were treated daily with 0.25 mg/Kg FGF21 or 20K PEG-FGF21 and glucose levels measured in fed mice after three treatments using a handheld glucose monitor, (FIG. 7B).\nThe homozygous db/db mouse (B6.BKS(D)-Leprdb/j, Jackson labs) is a well characterized animal model for diabetes and becomes obese after 3-4 weeks of age. The animals also display elevated plasma insulin, blood sugar, and delayed wound healing. In this study, 7-8 week old, male db/db mice were fed Lab Diet 5053 Rodent Diet 20 ad libitum. Mice were acclimatized for seven days and subsequently administered PEGylated FGF21, unmodified FGF21 and vehicle (PBS) subcutaneously daily for […].\nEach mouse was administered 0.25 mg/Kg of PEG-FGF21 or unmodified FGF21 daily for three days. Fed glucose blood levels were determined by tail clip bleeding one hour after compound administration on day 3, and glucose levels measured by a handheld glucose meter (Bayer)."}, "[9]": {"settings": "Tracer (wild type GFP) transfected, sample 6"}},
  "note": "Values joined by “and” are separate entries in the source; they are usually repeats but may differ in a detail not shown here. Equal values may be shown once.",
  "data": [
    {"molecule": "C=CCOC(=O)NCCCC[C@H](N)C(=O)O", "note": "[Formula V.3, (2S)-2-amino-6-{[(prop-2-en-1-yloxy)carbonyl]amino}hexanoic acid]", "values": [
      {"measurement": "effect on cell viability/growth", "setting": "[1]", "value": "cytotstatic effect"},
      {"measurement": "Positive GFP", "setting": "[2]", "value": "Yes"},
      {"measurement": "MFI", "setting": "[2]", "value": "2,250,000"},
      {"measurement": "MFI", "setting": "[2]; listed as V.3", "value": 2250000}
    ]},
    {"molecule": "C=CCOC(=O)NCCCCC(=O)O", "note": "[Formula VIIB.2, 5-{[(prop-2-en-1-yloxy)carbonyl]amino}pentanoic acid]", "values": [
      {"measurement": "reduction in background amber suppression levels", "setting": "[3]; dnnAA at 0.5 mM, 1 mM and 2 mM", "value": "reduction in the background amber suppression levels"},
      {"measurement": "% Reduction at 2 mM Decoy", "setting": "[3]; reduction in GFP expression relative to control not exposed to dnnAA, 3 days", "value": 57.7, "unit": "%"},
      {"measurement": "prevention of cytostatic effects of amber suppression activation", "setting": "[4]", "value": "prevent the cytostatic effects"},
      {"measurement": "cell density", "setting": "[4]; seven days", "value": "over 3 ×10^6 cells/mL"},
      {"measurement": "cell viability", "setting": "[4]; seven days", "value": "over 90%"},
      {"measurement": "increase in cell numbers vs cultures without dnnAA", "setting": "[5]", "value": "two fold"},
      {"measurement": "cell numbers", "setting": "[5]; 96-well plates, ten cells per well, grown in dnnAA", "value": "3.0 ×10^6 cells/mL and 3.7 ×10^6 cells/mL"},
      {"measurement": "reduction of GFP expression relative to samples lacking dnnAA (geometric mean fluorescence intensity)", "setting": "[6]", "value": "relative reduction in GFP expression was much lower"},
      {"measurement": "Top 300 (GM)", "setting": "[7]; GFPY40 reporter with lys-azide, 24 hours, cells previously grown with decoy", "value": "1142 and 1149 and 1135"},
      {"measurement": "# events in top gate", "setting": "[7]; GFPY40 reporter, top 10% of GFP intensity, cells previously grown with decoy", "value": "175 and 179 and 171"},
      {"measurement": "# events in top gate", "setting": "[7]; [9]", "value": 59},
      {"measurement": "Top 300 (GM)", "setting": "[7]; [9]", "value": 529}
    ]},
    {"molecule": "B1", "values": [
      {"measurement": "glucose level maintenance vs placebo", "setting": "[8]", "value": "improved glucose level maintenance as compared to placebo controls"},
      {"measurement": "potency on fed glucose blood levels", "setting": "[8]", "value": "same potency of wild type FGF21"}
    ]}
  ]
}
